Literature values as cited in patent publication US4134792A, “Specific binding assay with an enzyme modulator as a labeling substance” (Miles Laboratories, Inc., priority 1976, dated 1979).
Where two headings read alike, the source gives them in different places.

Tests used:
[1] = system: aspartate transcarbamylase; design: key: inhibitory or negative effectors are indicated by (-); stimulatory or positive effectors are indicated by (+); conditions: E. coli; cited from earlier work
[2] = system: phosphofructokinase; conditions: guinea pig heart; cited from earlier work
[3] = system: glutamate dehydrogenase; design: key: inhibitory or negative effectors are indicated by (-); stimulatory or positive effectors are indicated by (+); conditions: beef liver; cited from earlier work
[4] = system: phosphorylase b; design: key: inhibitory or negative effectors are indicated by (-); stimulatory or positive effectors are indicated by (+); conditions: rabbit muscle; cited from earlier work
[5] = system: homoserine dehydrogenase; design: key: inhibitory or negative effectors are indicated by (-); stimulatory or positive effectors are indicated by (+); conditions: R. rubrum; cited from earlier work
[6] = system: biosynthetic L-threonine deaminase; design: key: inhibitory or negative effectors are indicated by (-); stimulatory or positive effectors are indicated by (+); conditions: E. coli K12 and yeast; cited from earlier work
[7] = system: deoxythymidine kinase; design: key: inhibitory or negative effectors are indicated by (-); stimulatory or positive effectors are indicated by (+); conditions: E. coli; cited from earlier work
[8] = biological target: uricase; conditions: approximation; competitive inhibitor; read-out: inhibitor constant (Ki); cited from earlier work
[9] = system: deoxycytidylate aminohydrolase; design: key: inhibitory or negative effectors are indicated by (-); stimulatory or positive effectors are indicated by (+); conditions: ass spleen; cited from earlier work
[10] = system: acetolactate synthetase; design: key: inhibitory or negative effectors are indicated by (-); stimulatory or positive effectors are indicated by (+); conditions: E. coli; cited from earlier work
[11] = system: L-glutamine-D-fructose-6-phosphate transaminase; design: key: inhibitory or negative effectors are indicated by (-); stimulatory or positive effectors are indicated by (+); conditions: rat liver; cited from earlier work
[12] = system: NAD-isocitric dehydrogenase; design: key: inhibitory or negative effectors are indicated by (-); stimulatory or positive effectors are indicated by (+); conditions: yeast; cited from earlier work
[13] = system: fructose-1,6-diphosphatase; design: key: inhibitory or negative effectors are indicated by (-); stimulatory or positive effectors are indicated by (+); conditions: frog muscle and rat liver; cited from earlier work
[14] = system: UDP-N-acetyl-glucosamine-2-epimerase; design: key: inhibitory or negative effectors are indicated by (-); stimulatory or positive effectors are indicated by (+); conditions: rat liver; cited from earlier work
[15] = system: nicotinamide adenine dinucleotide (NAD)-isocitric dehydrogenase; design: key: inhibitory or negative effectors are indicated by (-); stimulatory or positive effectors are indicated by (+); conditions: N. crassa; cited from earlier work
[16] = system: glycogen synthetase; design: key: inhibitory or negative effectors are indicated by (-); stimulatory or positive effectors are indicated by (+); conditions: yeast and lamb muscle; cited from earlier work
[17] = system: homoserine dehydrogenase; design: key: inhibitory or negative effectors are indicated by (-); stimulatory or positive effectors are indicated by (+); conditions: E. coli; cited from earlier work
[18] = system: threonine aspartokinase; design: key: inhibitory or negative effectors are indicated by (-); stimulatory or positive effectors are indicated by (+); conditions: E. coli; cited from earlier work
[19] = system: lysine aspartokinase; design: key: inhibitory or negative effectors are indicated by (-); stimulatory or positive effectors are indicated by (+); conditions: E. coli; cited from earlier work
[20] = system: L-threonine deaminase; design: key: inhibitory or negative effectors are indicated by (-); stimulatory or positive effectors are indicated by (+); conditions: C. tetanomorphum; cited from earlier work

Nc1ccn([C@@H]2O[C@H](COP(=O)(O)OP(=O)(O)OP(=O)(O)O)[C@@H](O)[C@H]2O)c(=O)n1 [CTP, cytosine triphosphate]
allosteric effector: inhibitory (-) or stimulatory (+) [1]: -

Nc1ncnc2c1ncn2[C@@H]1O[C@H](COP(=O)(O)OP(=O)(O)OP(=O)(O)O)[C@@H](O)[C@H]1O [ATP, adenosine triphosphate]
allosteric effector: inhibitory (-) or stimulatory (+) [2]: - | allosteric effector: inhibitory (-) or stimulatory (+) [3]: - | allosteric effector: inhibitory (-) or stimulatory (+) [4]: - | allosteric effector: inhibitory (-) or stimulatory (+) [1]: +

CC[C@H](C)[C@H](N)C(=O)O [L-isoleucine]
allosteric effector: inhibitory (-) or stimulatory (+) [5]: + | allosteric effector: inhibitory (-) or stimulatory (+) [6]: -

Nc1ccn([C@H]2C[C@H](O)[C@@H](COP(=O)(O)OP(=O)(O)O)O2)c(=O)n1 [dCDP, deoxycytosine diphosphate]
allosteric effector: inhibitory (-) or stimulatory (+) [7]: +

Clc1nc(Cl)c2[nH]c(Cl)nc2n1 [2,6,8-trichloropurine, 2,6,8-Trichloropurine]
Ki [8]: ~1000 nM

Cc1cn([C@H]2C[C@H](O)[C@@H](COP(=O)(O)OP(=O)(O)OP(=O)(O)O)O2)c(=O)[nH]c1=O [dTTP, deoxythymidine triphosphate]
allosteric effector: inhibitory (-) or stimulatory (+) [9]: - | allosteric effector: inhibitory (-) or stimulatory (+) [7]: -

CC(C)[C@H](N)C(=O)O [L-valine]
allosteric effector: inhibitory (-) or stimulatory (+) [6]: + | allosteric effector: inhibitory (-) or stimulatory (+) [10]: +

Nc1ccn([C@H]2C[C@H](O)[C@@H](COP(=O)(O)OP(=O)(O)OP(=O)(O)O)O2)c(=O)n1 [dCTP, deoxycytosine triphosphate]
allosteric effector: inhibitory (-) or stimulatory (+) [9]: +

CC(=O)N[C@H]1[C@@H](OP(=O)(O)OP(=O)(O)OC[C@H]2O[C@@H](n3ccc(=O)[nH]c3=O)[C@H](O)[C@@H]2O)O[C@H](CO)[C@@H](O)[C@@H]1O [uridine diphosphate (UDP)-N-acetyl-glucosamine]
allosteric effector: inhibitory (-) or stimulatory (+) [11]: -

Nc1ncnc2c1ncn2[C@@H]1O[C@H](COP(=O)(O)O)[C@@H](O)[C@H]1O [5'-AMP]
allosteric effector: inhibitory (-) or stimulatory (+) [12]: + | allosteric effector: inhibitory (-) or stimulatory (+) [4]: + | allosteric effector: inhibitory (-) or stimulatory (+) [13]: -

CC(=O)N[C@H]1[C@H]([C@H](O)[C@H](O)CO)OC(OP(=O)(O)OC[C@H]2O[C@@H](n3ccc(N)nc3=O)[C@H](O)[C@@H]2O)(C(=O)O)C[C@@H]1O (stereo partly drawn) [cytosine monophosphate (CMP)-N-acetyl-neuraminic acid]
allosteric effector: inhibitory (-) or stimulatory (+) [14]: -

O=C(O)CC(O)(CC(=O)O)C(=O)O [citrate]
allosteric effector: inhibitory (-) or stimulatory (+) [15]: +

O=P(O)(O)OC[C@H]1OC(O)[C@H](O)[C@@H](O)[C@@H]1O (stereo partly drawn) [glucose-6-phosphate]
allosteric effector: inhibitory (-) or stimulatory (+) [16]: +

C[C@@H](O)[C@H](N)C(=O)O [L-threonine]
allosteric effector: inhibitory (-) or stimulatory (+) [5]: - | allosteric effector: inhibitory (-) or stimulatory (+) [17]: - | allosteric effector: inhibitory (-) or stimulatory (+) [18]: -

NCCCC[C@H](N)C(=O)O [L-lysine]
allosteric effector: inhibitory (-) or stimulatory (+) [19]: -

Nc1ncnc2c1ncn2[C@@H]1O[C@H](COP(=O)(O)OP(=O)(O)O)[C@@H](O)[C@H]1O [ADP, addenosine diphosphate]
allosteric effector: inhibitory (-) or stimulatory (+) [3]: + | allosteric effector: inhibitory (-) or stimulatory (+) [20]: +
